Measurements as given in patent publication US20250115669A1, “FGFR1/KLB Targeting Agonistic Antigen-Binding Proteins and Conjugates Thereof with GLP-1R Agonistic Peptides” (SANOFI, priority 2020, published 2025).
Bridge positions count the residues as written; N and C are the ends. Ends that are not written are not given here. Peptide text beside a SMILES is read from it.

Columns and labels:
Type in all cases: cell-based
[1] = target: T1, human GLP-1 receptor (Homo sapiens, UniProt P43220); experiment: HTRF cAMP assay in HEK-293 cells expressing human GLP-1 receptor
T1 construct: expressed in transfected cells; host or cells: PSC-HEK-293
Description: (§1) Each vial contained 1.8 ml cells. The vials were slowly frozen to −80° C. in isopropanol, and then transferred in liquid nitrogen for storage.
(§2) Cells were resuspended in assay buffer (cell buffer plus 2 mM IBMX) and adjusted to a cell density of 1 million cells/ml.
(§3) For measurement of cAMP generation, 5 μl cells (final 5000 cells/well) and 5 μl of test compound were added to a 384-well plate, followed by incubation for 30 min at room temperature.
(§4) The cAMP generated was determined using a kit from Cisbio Corp. based on HTRF (Homogenous Time Resolved Fluorescence). The cAMP assay was performed according to manufacturer's instructions (Cisbio).

[2] = target: T2, human glucagon (GCG) receptor (Homo sapiens, UniProt P47871); experiment: HTRF cAMP assay in HEK-293 cells expressing human glucagon receptor; conditions: HEK-293 cells; read-out: HTRF cAMP EC50 Human GCGR
T2 construct: expressed in transfected cells; host or cells: PSC-HEK-293
Description: as §1, §2, §3, §4

[3] = target: T3, human GIP receptor (Homo sapiens, UniProt P48546); experiment: HTRF cAMP assay in HEK-293 cells expressing human GIP receptor; conditions: HEK-293 cells; read-out: HTRF cAMP EC50 Human GIPR
T3 construct: expressed in transfected cells; host or cells: PSC-HEK-293
T3 sequence (P48546 22-466): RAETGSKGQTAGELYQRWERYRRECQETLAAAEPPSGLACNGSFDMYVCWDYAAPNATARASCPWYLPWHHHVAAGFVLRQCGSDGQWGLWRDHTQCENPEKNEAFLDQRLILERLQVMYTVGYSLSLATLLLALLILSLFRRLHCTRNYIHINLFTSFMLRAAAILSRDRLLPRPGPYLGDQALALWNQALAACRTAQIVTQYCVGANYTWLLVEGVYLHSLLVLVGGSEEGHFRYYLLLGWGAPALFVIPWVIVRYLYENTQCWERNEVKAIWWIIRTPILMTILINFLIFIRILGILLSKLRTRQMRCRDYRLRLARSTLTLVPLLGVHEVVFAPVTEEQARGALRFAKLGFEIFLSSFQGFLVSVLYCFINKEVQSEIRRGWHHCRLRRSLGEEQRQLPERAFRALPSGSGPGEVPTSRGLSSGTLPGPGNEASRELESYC
Description: as §1, §2, §3, §4

T2 sequence (P47871 26-477): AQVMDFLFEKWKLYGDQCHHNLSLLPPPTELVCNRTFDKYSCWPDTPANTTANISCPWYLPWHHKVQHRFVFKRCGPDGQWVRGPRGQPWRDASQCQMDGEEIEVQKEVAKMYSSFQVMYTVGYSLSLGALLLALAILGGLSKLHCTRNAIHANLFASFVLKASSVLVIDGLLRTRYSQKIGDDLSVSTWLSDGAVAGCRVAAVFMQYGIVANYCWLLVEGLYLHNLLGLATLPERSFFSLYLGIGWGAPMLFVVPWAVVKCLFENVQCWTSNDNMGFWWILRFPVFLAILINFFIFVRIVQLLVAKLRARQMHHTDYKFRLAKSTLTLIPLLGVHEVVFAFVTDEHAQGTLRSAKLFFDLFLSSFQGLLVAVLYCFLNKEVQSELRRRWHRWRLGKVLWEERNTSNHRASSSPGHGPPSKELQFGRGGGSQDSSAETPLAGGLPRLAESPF
T1 sequence (P43220 24-463): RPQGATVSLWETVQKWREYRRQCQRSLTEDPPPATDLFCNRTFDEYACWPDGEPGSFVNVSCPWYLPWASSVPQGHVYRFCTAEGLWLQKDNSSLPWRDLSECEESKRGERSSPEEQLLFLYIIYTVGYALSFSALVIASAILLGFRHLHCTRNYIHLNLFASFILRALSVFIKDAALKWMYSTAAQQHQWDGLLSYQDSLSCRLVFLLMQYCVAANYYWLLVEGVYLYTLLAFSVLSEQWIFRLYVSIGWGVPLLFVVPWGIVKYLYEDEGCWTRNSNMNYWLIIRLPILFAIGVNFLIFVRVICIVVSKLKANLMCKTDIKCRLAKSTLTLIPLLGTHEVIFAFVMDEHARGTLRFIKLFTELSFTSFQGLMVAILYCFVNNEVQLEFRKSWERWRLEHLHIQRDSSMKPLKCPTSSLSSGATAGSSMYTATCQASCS

| Compound | EC50 [1] | EC50 [2] | EC50 [3] |
| --- | --- | --- | --- |
| CC[C@H](C)[C@H](NC(=O)[C@H](CO)NC(=O)[C@H](CC(C)C)NC(=O)[C@H](CC(=O)O)NC(=O)[C@H](CO)NC(=O)[C@@H](NC(=O)[C@H](Cc1ccccc1)NC(=O)[C@@H](NC(=O)CNC(=O)[C@H](CCC(=O)O)NC(=O)CNC(=O)[C@@H](N)Cc1c[nH]cn1)[C@@H](C)O)[C@@H](C)O)C(=O)N[C@@H](CCC(N)=O)C(=O)N[C@@H](CC(C)C)C(=O)N[C@@H](CC(=O)O)C(=O)N[C@@H](CCC(=O)O)C(=O)N[C@@H](CCC(=O)O)C(=O)N[C@@H](C)C(=O)N[C@H](C(=O)N[C@@H](CCCNC(=N)N)C(=O)N[C@@H](CC(C)C)C(=O)N[C@@H](Cc1ccccc1)C(=O)N[C@H](C(=O)N[C@@H](CCC(=O)O)C(=O)N[C@@H](Cc1c[nH]c2ccccc12)C(=O)N[C@@H](CC(C)C)C(=O)N[C@@H](CC(C)C)C(=O)N[C@@H](C)C(=O)N[C@H](C(=O)NCC(=O)N1CCC[C@H]1C(=O)N[C@H](C(=O)N[C@@H](CO)C(=O)NCC(=O)N[C@@H](C)C(=O)N1CCC[C@H]1C(=O)N1CCC[C@H]1C(=O)N1CCC[C@H]1C(=O)N[C@@H](CO)C(N)=O)C(C)C)[C@@H](C)O)[C@@H](C)CC)C(C)C [Ab P005] | 0.0031 nM |  |  |
| CC[C@H](C)[C@H](NC(=O)[C@H](CO)NC(=O)[C@H](CC(C)C)NC(=O)[C@H](CC(=O)O)NC(=O)[C@H](CO)NC(=O)[C@@H](NC(=O)[C@H](Cc1ccccc1)NC(=O)[C@@H](NC(=O)CNC(=O)[C@H](CCC(=O)O)NC(=O)CNC(=O)[C@@H](N)Cc1c[nH]cn1)[C@@H](C)O)[C@@H](C)O)C(=O)N[C@@H](CCC(N)=O)C(=O)N[C@@H](CC(C)C)C(=O)N[C@@H](CC(=O)O)C(=O)N[C@@H](CCC(=O)O)C(=O)N[C@@H](CCC(=O)O)C(=O)N[C@@H](C)C(=O)N[C@H](C(=O)N[C@@H](CCCNC(=N)N)C(=O)N[C@@H](CC(C)C)C(=O)N[C@@H](Cc1ccccc1)C(=O)N[C@H](C(=O)N[C@@H](CCC(=O)O)C(=O)N[C@@H](Cc1c[nH]c2ccccc12)C(=O)N[C@@H](CC(C)C)C(=O)N[C@@H](CCC(=O)O)C(=O)N[C@@H](C)C(=O)N[C@H](C(=O)NCC(=O)N1CCC[C@H]1C(=O)N[C@H](C(=O)N[C@@H](CO)C(=O)NCC(=O)N[C@@H](C)C(=O)N1CCC[C@H]1C(=O)N1CCC[C@H]1C(=O)N1CCC[C@H]1C(=O)N[C@@H](CO)C(N)=O)C(C)C)[C@@H](C)O)[C@@H](C)CC)C(C)C [Ab P006] (H-HGEGTFTSDLSIQLDEEAVRLFIEWLEATGPVSGAPPPS-NH2) | 0.0147 nM |  |  |
| CC[C@H](C)[C@H](NC(=O)[C@H](Cc1ccccc1)NC(=O)[C@H](CC(C)C)NC(=O)[C@H](CCC(N)=O)NC(=O)[C@@H](NC(=O)[C@H](C)NC(=O)[C@H](CCC(=O)O)NC(=O)[C@H](CCC(=O)O)NC(=O)[C@H](CCC(=O)O)NC(=O)[C@H](CC(C)C)NC(=O)[C@H](CCC(N)=O)NC(=O)[C@H](CCCCN)NC(=O)[C@H](CO)NC(=O)[C@H](CC(C)C)NC(=O)[C@H](CC(=O)O)NC(=O)[C@H](CO)NC(=O)[C@@H](NC(=O)[C@H](Cc1ccccc1)NC(=O)[C@@H](NC(=O)CNC(=O)[C@H](CCC(=O)O)NC(=O)CNC(=O)[C@@H](N)Cc1c[nH]cn1)[C@@H](C)O)[C@@H](C)O)C(C)C)C(=O)N[C@@H](CCC(=O)O)C(=O)N[C@@H](Cc1c[nH]c2ccccc12)C(=O)N[C@@H](CC(C)C)C(=O)N[C@@H](CC(C)C)C(=O)N[C@@H](C)C(=O)N[C@H](C(=O)NCC(=O)N1CCC[C@H]1C(=O)N[C@@H](CO)C(=O)N[C@@H](CO)C(=O)NCC(=O)N[C@@H](C)C(=O)N1CCC[C@H]1C(=O)N1CCC[C@H]1C(=O)N1CCC[C@H]1C(=O)N[C@@H](CO)C(N)=O)[C@@H](C)O [Ab P010] (H-HGEGTFTSDLSKQLEEEAVQLFIEWLLATGPSSGAPPPS-NH2) | 0.0035 nM |  |  |
| CC[C@H](C)[C@H](NC(=O)[C@H](CO)NC(=O)[C@H](CC(C)C)NC(=O)[C@H](CC(=O)O)NC(=O)[C@H](CO)NC(=O)[C@@H](NC(=O)[C@H](Cc1ccccc1)NC(=O)[C@@H](NC(=O)CNC(=O)[C@H](CCC(=O)O)NC(=O)CNC(=O)[C@H](Cc1c[nH]cn1)NC(=O)CN)[C@@H](C)O)[C@@H](C)O)C(=O)N[C@@H](CCC(N)=O)C(=O)N[C@@H](CC(C)C)C(=O)N[C@@H](CCC(=O)O)C(=O)N[C@@H](CCC(=O)O)C(=O)N[C@@H](CCC(=O)O)C(=O)N[C@@H](C)C(=O)N[C@H](C(=O)N[C@@H](CCCNC(=N)N)C(=O)N[C@@H](CC(C)C)C(=O)N[C@@H](Cc1ccccc1)C(=O)N[C@H](C(=O)N[C@@H](CCC(=O)O)C(=O)N[C@@H](Cc1c[nH]c2ccccc12)C(=O)N[C@@H](CC(C)C)C(=O)N[C@@H](CC(C)C)C(=O)N[C@@H](C)C(=O)NCC(=O)NCC(=O)N1CCC[C@H]1C(=O)N[C@@H](CO)C(=O)N[C@@H](CO)C(=O)NCC(=O)N[C@@H](C)C(=O)N1CCC[C@H]1C(=O)N1CCC[C@H]1C(=O)N1CCC[C@H]1C(=O)N[C@@H](CO)C(N)=O)[C@@H](C)CC)C(C)C [Ab P019] | 0.0276 nM |  |  |
| CC[C@H](C)[C@H](NC(=O)[C@H](CO)NC(=O)[C@H](CC(C)C)NC(=O)[C@H](CC(=O)O)NC(=O)[C@H](CO)NC(=O)[C@@H](NC(=O)[C@H](Cc1ccccc1)NC(=O)[C@@H](NC(=O)CNC(=O)[C@H](CCC(=O)O)NC(=O)CNC(=O)[C@H](Cc1c[nH]cn1)NC(=O)CN)[C@@H](C)O)[C@@H](C)O)C(=O)N[C@@H](CCC(N)=O)C(=O)N[C@@H](CC(C)C)C(=O)N[C@@H](CCC(=O)O)C(=O)N[C@@H](CCC(=O)O)C(=O)N[C@@H](CCC(=O)O)C(=O)N[C@@H](C)C(=O)N[C@H](C(=O)N[C@@H](CCCNC(=N)N)C(=O)N[C@@H](CC(C)C)C(=O)N[C@@H](Cc1ccccc1)C(=O)N[C@H](C(=O)N[C@@H](CCC(=O)O)C(=O)N[C@@H](Cc1c[nH]c2ccccc12)C(=O)N[C@@H](CC(C)C)C(=O)N[C@@H](CC(C)C)C(=O)N[C@@H](C)C(=O)N[C@H](C(=O)NCC(=O)N1CCC[C@H]1C(=O)N[C@@H](CO)C(=O)N[C@@H](CO)C(=O)NCC(=O)N[C@@H](C)C(=O)N1CCC[C@H]1C(=O)N1CCC[C@H]1C(=O)N1CCC[C@H]1C(=O)N[C@@H](CO)C(N)=O)[C@@H](C)O)[C@@H](C)CC)C(C)C [Ab P020] | 0.206 nM |  |  |
| CC[C@H](C)[C@H](NC(=O)[C@H](Cc1ccccc1)NC(=O)[C@H](CCC(=O)O)NC(=O)[C@H](Cc1c[nH]cn1)NC(=O)[C@H](CCC(N)=O)NC(=O)[C@H](C)NC(=O)[C@H](CCCNC(=N)N)NC(=O)[C@H](CCCCN)NC(=O)[C@H](CCC(=O)O)NC(=O)[C@H](CC(C)C)NC(=O)[C@H](CC(C)C)NC(=O)[C@H](CCC(=O)O)NC(=O)[C@H](CO)NC(=O)[C@H](CC(C)C)NC(=O)[C@H](CC(=O)O)NC(=O)[C@H](CO)NC(=O)[C@@H](NC(=O)[C@H](Cc1ccccc1)NC(=O)[C@@H](NC(=O)CNC(=O)[C@H](CCC(=O)O)NC(=O)CNC(=O)[C@@H](N)Cc1c[nH]cn1)[C@@H](C)O)[C@@H](C)O)C(=O)N[C@@H](CCC(=O)O)C(=O)N[C@@H](Cc1c[nH]c2ccccc12)C(=O)N[C@@H](CC(C)C)C(=O)N[C@@H](CCCCN)C(=O)N[C@@H](C)C(=O)NCC(=O)NCC(=O)N1CCC[C@H]1C(=O)N[C@@H](CO)C(=O)N[C@@H](CO)C(=O)NCC(=O)N[C@@H](CCCCN)C(=O)N1CCC[C@H]1C(=O)N1CCC[C@H]1C(=O)N1CCC[C@H]1C(=O)N[C@@H](CCCCN)C(N)=O [Ab P032] (H-HGEGTFTSDLSELLEKRAQHEFIEWLKAGGPSSGKPPPK-NH2; N-terminus assumed) |  | > 10 nM | 2.37 nM |
| HGEGTFTSDLSILCEKRAVHEFIEWLIAGGPSSGKPPPKPGC-NH2 (disulfide 14-42) [Ab P033] |  | > 10 nM | 0.024 nM |
| HGEGTFTSDLSILCEKRAVHEFIEWLKAGGPSSGKPPPKPGC-NH2 (disulfide 14-42) [Ab P034] |  | > 10 nM | 0.257 nM |
